The test system of data set [1] is patients having newly diagnosed AML. In words: Example 5: alvocidib plus daunorubicin/cytarabine (ACD) with TLS monitoring, treatment-emergent adverse events classified as TLS. The class given is in vivo, human. The method, then: This study will evaluate the safety and efficacy of alvocidib in combination with cytarabine/daunorubicin (7+3) in patients with newly diagnosed AML. Treatment consists of increasing dose levels of alvocidib starting at 20 mg/m^2 as a 30-minute IV bolus followed by 30 mg/m^2 over 4 hours on days 1-3, cytarabine 100 mg/m^2/day by continuous IV infusion on days 5-11, followed by (e.g., followed about 30 minutes later by) daunorubicin 60 mg/m^2 IV on days 5-7. Reinduction therapy with alvocidib (same dose as induction) days 1-3, followed by cytarabine 100 mg/m^2/day continuous IV on days 5-9, and daunorubicin 45 mg/m^2 IV days 5-6 is recommended in patients with >10% and >5% cellularity and blasts, respectively.
For patients at high risk for TLS, including those with risk scores of greater than or equal to 2 according to Table 1, those with monocytic leukemia phenotype, or those with a history of FLT3 positive AML, monitoring will include: (i) obtaining a STAT serum potassium at the end of an alvocidib infusion; (ii) obtaining a serum potassium 2 hours after the end of an alvocidib infusion, (iii) obtaining a full TLS panel 4 hours after the end of an alvocidib infusion, and (iv) monitoring fibrinogen levels at baseline and then as clinically indicated. If there is evidence of clinically meaningful TLS, a TLS panel will be obtained every 2 hours during the first 24 hours after the end of an alvocidib infusion (assessment of LDH levels at least once every 24 hours is also recommended). If there is no evidence of clinically meaningful TLS, a TLS panel will be obtained every 4 hours during the first 24 hours after the end of an alvocidib infusion (assessment of LDH levels at least once every 24 hours is also recommended). If, after the first 24 hours after the end of an alvocidib infusion, there is no evidence of TLS, a TLS panel will be obtained approximately every 6 hours for the remainder of alvocidib treatment, and then every 12 hours after completion of alvocidib during daunorubicin and cytarabine treatment (assessment of LDH levels at least once every 24 hours is also recommended).
For patients not at high risk for TLS, tumor lysis evaluations will be monitored at the start of alvocidib treatment and approximately every 4 hours thereafter for 24 hours. Laboratory studies during this period will be run as a “STAT” to ensure the results are available in a timely manner. If there is no evidence of TLS during first the 24 hours, then tumor lysis evaluations will be monitored approximately every 6-8 hours for the remainder of alvocidib treatment, and then every 12 hours after the completion of alvocidib during cytarabine and daunorubicin treatment. Fibrinogen levels will be monitored at baseline and then as clinically indicated.
Patients were treated with ACD according to a treatment regimen similar to that described in Example 2, and monitored for TLS according to the monitoring protocols described in Example 2. Briefly, treatment consisted of increasing dose levels of alvocidib starting at 20 mg/m^2 as a 30-minute (±10 minutes) IV bolus followed by 30 mg/m^2 as a 4-hour (±15 minutes) IV infusion on days 1-3, followed by daunorubicin 60 mg/m^2 IV on days 5-7 via IV bolus of up to 15 minutes (±5 minutes) in duration each day, followed by (e.g., followed immediately by) cytarabine 100 mg/m^2/day by 24-hour (±2 hours) continuous IV infusion on days 5-11. Reinduction therapy with alvocidib (same dose as induction) days 1-3, followed by daunorubicin 45 mg/m^2 IV via IV bolus of up to 15 minutes (±5 minutes) in duration each day on days 5-6, followed by (e.g., followed immediately by) cytarabine 100 mg/m^2/day continuous, 24-hour IV infusion (±2 hours) on days 5-9, was recommended in patients with evidence of residual leukemia, defined as >5% bone marrow blasts plus >10% cellularity, based on day 14 (±3 days) bone marrow. […]

In data set [2] the test system is cancer patients being treated with alvocidib. Nature of the data set: Clinical trials using a TLS monitoring protocol described herein: deaths attributed to TLS. The class given is in vivo, human. The note with it: to date. The text has this: Current protocols for monitoring the development of TLS in patients vary greatly due to interindividual clinician experience and different standards of care among institutions. The risk for and rapid development of TLS in cancer patients being treated with alvocidib presents a need for more precise but clinically practical TLS monitoring protocols that allow subjects to remain on alvocidib treatment and avoid dose-limiting TLS. To date, there have been no deaths attributed to TLS in clinical trials using a TLS monitoring protocol described herein.

For data set [3] the following is noted: statement without data; prodrugs described in WO 2016/187316 and WO 2018/094275; cited from earlier work.
Setting [4] is: Study Total, all dose levels (N = 31).
Where [5] appears, read: alvocidib 30/40 mg/m^2 (bolus/infusion) days 1-3 with daunorubicin and cytarabine (N = 3).
[6] abbreviates: alvocidib 30/60 mg/m^2 (bolus/infusion) days 1-3 with daunorubicin and cytarabine (N = 22).

The values below come from patent publication US20210379042A1, “METHODS FOR MONITORING TUMOR LYSIS SYNDROME” (Sumitomo Dainippon Pharma Oncology, Inc., priority 2018, published 2021).

Consider `CN1CC[C@H](c2c(O)cc(O)c3c(=O)cc(-c4ccccc4Cl)oc23)[C@H](O)C1` [Alvocidib, 2-(2-chlorophenyl)-5,7-dihydroxy-8-[(3 S,4R)-3-hydroxy-1-methylpiperidin-4-yl]chromen-4-one], for which the “Tumor lysis syndrome, treatment-emergent adverse events, number of patients” value is on record as 8 in data set [1] (setting [4]); 0 in data set [1] (alvocidib 20/30 mg/m^2 (bolus/infusion) days 1-3 with daunorubicin and cytarabine (N = 3)); 1 in data set [1] (setting [5]); 0 in data set [1] (alvocidib 30/50 mg/m^2 (bolus/infusion) days 1-3 with daunorubicin and cytarabine (N = 3)); 7 in data set [1] (setting [6]). Also, the “Tumor lysis syndrome, treatment-emergent adverse events, percent of patients” value in data set [1] (setting [4]) came out at 25.8%; in data set [1] (setting [5]), 33.3%; in data set [1] (setting [6]), 31.8%. The “deaths attributed to TLS” value in data set [2] is “no deaths”.

In the case of `CN1CC[C@H](c2c(OP(=O)(O)O)cc(O)c3c(=O)cc(-c4ccccc4Cl)oc23)[C@H](O)C1` [Ia], in data set [3], the oral bioavailability result was “orally bioavailable”.
